From patent publication US20020013350A1 (priority 1998, published 2002)

Test system: cabbage black rot bacterium (Xanthomonas campestris)
Assay: Control test on cabbage black rot
Type: in vivo
Details: 350 ppm, cabbage sprayed four times at intervals of 7 days
Excerpt: Two days after the second spraying, the cabbage was inoculated with an aqueous suspension of cabbage black rot bacterium (Xanthomonas campestris) by the method of spraying. Two weeks after the final spraying, the cabbage was investigated to calculated the degree of disease occurrence according to the following criterion. In the untreated plot, the degree of disease occurrence was 44.7.
Degree of disease occurrence=Σ(Number of hills at every degree of occurrence)×100÷(Number of hills investigated×3)
From the degree of disease occurrence, controlling degree was calculated according to the following equation. […] [formula]

Compound: Oc1cccc2cccnc12.[Cu] [8-Hydroxyquinoline-copper, 8-Hydroxyquinoline copper]
- Controlling degreee (%): 59%
- Degree of disease occurrence: 18.2
- Percentage of diseased hills (%): 54.5%
